The values that follow come from US20170290852A1, “MICELLE FORMULATIONS OF AMPHOTERICIN B” (Wisconsin Alumni Research Foundation, priority 2016, published 2017).

A word on the MIC: it is the least concentration at which growth counts as inhibited.

Values after ≈ are worked out from the molar mass of the structure shown.

For data set [1], the system named is bovine red blood cells. The note with it: 5-FC alone, 25-100 μg/ml.
In data set [2] the test system is C. albicans strain K1. The data set is described as follows: Minimum inhibitory concentration (MIC). Conditions: K1 (Example 6); for 5-FC the concentration inhibiting ≧50% by absorbance. It counts as cell-based. As to the method: (§1) To prepare the inoculation, the fungal strains were cultured for approximately 24 hours on Sabouraud dextrose agar (SDA) plates were diluted to a 0.5 McFarland standard (1-5×10^6 CFU/mL) in sterile normal saline and diluted 100-fold in yeast peptone dextrose (YPD). Inoculum was added to serial dilutions of AmB in 96-well plates, following the microplate dilution method. Plates were sealed with Breathe Easier membranes (Sigma Aldrich, St. Louis, Mo.). ATCC 9763 or K1 was incubated at 30° C. or 37° C., respectively, for 18-20 hours. […] SDA was prepared with 1% peptone, 4% glucose, and 1.5% agar in deionized water. YPD media was prepared with 1% yeast extract, 2% peptone, and 2% glucose in deionized water. Autoclaving was used to sterilize media.
(§2) For 5-FC, the concentration necessary to inhibit ≧50% as determined by absorbance is reported.

Data set [3] has as its system C. albicans Gu5 (ATCC MYA-574). Nature of the data set: Minimum inhibitory concentration (MIC). It counts as cell-based. The note with it: for 5-FC the concentration inhibiting ≧50% by absorbance. The procedure:
as §1, §2

The subject of data set [4] is C. albicans SC5314 (ATCC MYA-2876). Nature of the data set: Minimum inhibitory concentration (MIC). Conditions: for 5-FC the concentration inhibiting ≧50% by absorbance. It counts as cell-based. As to the method:
as §1, §2

Data set [5] relates to K1. Nature of the data set: Neutropenic mouse model of disseminated candidiasis. It counts as in vivo, ICR/Swiss mice. The note with it: 48 hours; 72 mg/kg 5-FC.
Experimental: The activity of each drug, alone and in combination, was evaluated in a neutropenic mouse model of disseminated candidiasis as described previously by D. Andes, et al., “Pharmacodynamics of amphotericin B in a neutropenic-mouse disseminated-candidiasis model,” Antimicrobial Agents and Chemotherapy, 45(3), 922-6 (2001).
For each treatment group, three six-week-old ICR/Swiss specific-pathogen-free female mice (Harlan Sprague Dawley, Madison, Wis.) were rendered neutropenic by multiple doses of cyclophosphamide. Animals were classified as neutropenic when polymorphonuclear leukocyte counts dropped below 100/mm^3. Infection was established by injecting 100 μL inoculum into the lateral tail vein. The inoculum was prepared by subculturing K1 on SDA plates for 24 hours at 35° C. Six colonies were dispersed into 5 mL of sterile pyrogen-free normal saline warmed to 35° C. and injected two hours prior to drug treatment. Antifungals (200 μL) were dosed intraperitoneally on the day of infection and 24 hours after the initial dose. […] The animals were euthanized by CO2 asphyxiation 48 hours after the initial drug treatment. […] After 24 hours of incubation at 35° C., colonies were counted. Results were expressed as the mean and standard deviation of the difference in viable fungal counts between the control group at zero hour (two hours post-infection) and each group at the 48 hour timepoint. […]

With `Nc1nc(=O)[nH]cc1F` [5-FC, 5-fluorocytosine], the hemolytic activity in data set [1] is reported as < 0.4%. For the same molecule, the MIC came out at 64 µg/mL (≈ 496 µM) in data set [2], 81 µg/mL (≈ 627 µM) in data set [3] and 20 µg/mL (≈ 155 µM) in data set [4]. For the same molecule, the “fungal burden of the control group relative to treated group” value in data set [5] worked out at 1.2 times.
